The results in this text go back to PMC11329928, “Design, synthesis and structure-activity relationship (SAR) studies of an unusual class of non-cationic fatty amine-tripeptide conjugates as novel synthetic antimicrobial agents” (Frontiers in Pharmacology, 2024).

Data set [1] has as its system Streptococcus pneumoniae R6. The data set can be described thus: Growth inhibition / lysis screening of planktonic cultures (OD550/600). Type of data set: cell-based. The arrangement: key: (+++) full inhibition; (++) partial inhibition; (+) growth retardation; -: (−) no effect. Conditions: S. pneumoniae R6, 50 and 100 μM compound added at early logarithmic phase (T1), OD550/600 followed 10 h, 37°C. The protocol: (§1) Planktonic cultures of selected pathogens (S. pneumoniae R6, S. pyogenes ^T, Staphylococcus aureus ^T, Escherichia coli DH10B, and Pseudomonas aeruginosa PAO1 strains) on early logarithmic-phase (T1) were assayed for their sensitivity to a broad range of DICAM compounds, as indicated in Table 1. Their bacteriostatic or lytic effect was first tested by measuring the variation of the OD550/600 as a function of time (10 h) when (50/100 μM) DICAMs were added, compared to untreated controls. The screening results, summarized in Table 1, evidenced that a potent antimicrobial activity may exist even when the negative charge of the peptide was higher than in the prototype compounds.
(§2) Susceptibility to DICAMs was first tested by growth-inhibition assays at 50 and 100 μM of compound. Briefly, working solutions at 5 mM or 10 mM DICAM in pure DMSO were prepared from DICAM stocks (40 mM in pure DMSO) and diluted with fresh culture medium to 5× the desired final concentration. Aliquots (50 µL) of these solutions were added to 200 µL of bacterium cultures grown to early exponential phase (OD550/600 c. a. 0.15–0.2 in sterile 96-well plates (Cultek, Spain). Incubation continued for 10 h at 37°C and turbidity (OD550/600) values were measured every 20 min to monitor growth and lysis, using a VersaMax microplate reader (Molecular Devices; United Kingdom). Next, the activity dependence on DICAM’s dose was examined by measuring the turbidity of treated and untreated cultures as a function of time. Also, the decay of bacterial viability (CFU/mL) at selected times of treatment was assessed by colony counting on LB-agar or TSA plates after overnight incubation at 37°C. By default, 10 μL of 10-fold serially diluted samples were plated, which set the lower detection limit at 10^2 CFU/mL (10^1 CFU/mL when 100 μL of the undiluted sample was seeded).

The nature of data set [2]: RP-HPLC retention time used to determine hydrophobicity. Type of data set: physicochemical. Conditions: analytical RP-HPLC, C18 Sunfire column (4.6 mm × 150 mm, 3.5 μm); A = 0.05% TFA in water, B = acetonitrile; 10% to 100% B in 20 min then isocratic 100% B 10 min; 217 and 254 nm; used as measure of hydrophobicity. The protocol: The purity of the lipopeptides was checked by analytical RP-HPLC on an Agilent Infinity instrument equipped with a Diode Array and a C18 Sunfire column (4.6 mm × 150 mm, 3.5 μm). As mobile phase A:B mixtures were used, where A = 0.05% TFA in water and B = acetonitrile. The samples were analyzed at 217 and 254 nm in a gradient from 10% of B to 100% of B in 20 min followed by isocratic 100% of B in 10 min.
Retention times were used to determine the hydrophobicity ([Neubauer et al., 2020]). HRMS (EI+) was carried out in an Agilent 6,520 Accurate-Mass Q-TOF LC/MS spectrometer using water/acetonitrile mixtures. Results can be found in Supplementary Section S3, S4.

For data set [3], the system named is S. pneumoniae D39. Format: cell-based, Streptococcus pneumoniae.
Text: First, the substitution of the fatty amino chain of 18 carbon atoms of the reference compound DICAM 2 by either an OMe group (methylated tripeptide DICAM 5) or an amine with 12 carbon atoms (DICAM 9) abolished the activity against all three pathogens. However, the activity remained intact when the chain of the fatty amine of prototypes DICAMs 1 and 4 was two carbon atoms shorter (DICAM 10 and DICAM 12, respectively), based on S. pneumoniae and S. pyogenes results. […] Third, Glu and Ala were tolerated as C-terminal residues of the lipotripeptides. […] In addition, deletion of the C-terminal Glu (DICAM 13) eradicated the activity against S. pneumoniae and S. aureus. However, a delay and small inhibition of S. pyogenes ^T growth was still observed. Fourth, Glu (DICAMs 19 and 20) and Orn (DICAMs 21 and 22) were tolerated as N-terminal residues, with the impact of these modifications being pathogen-dependent. […] SAR studies continued by measuring the dose dependence of DICAM’s activity at T1 with all the compounds found to be active against S. pyogenes or S. aureus in the initial screening, and all but one compound in the case of S. pneumoniae. The OD values of bacterial cultures were monitored after DICAM addition, and the decrease in the number of viable bacteria was measured relative to controls (Figures 4–6; Supplementary Figure S1). As antibacterial efficacy may decline with the bacterium dose in the inoculum ([Belley et al., 2009]; [Udekwu et al., 2009]; [Luca et al., 2013]), the assays were performed using the bacterial concentrations necessary for the fluorescence experiments in Section 2.3 (10^7–10^8 CFU/mL). At these high bacterial densities, MICs were determined as the DICAM concentration at which bacteria neither grow nor are killed (the stationary concentration (SC)), following [Udekwu et al., 2009]. By fitting the logarithmic plot of cell viability decrease vs. the DICAM dose to a Hill function (see Section 5.2.3.1) we were able to determine the maximum variation in viability (Δlogmax = ∆log f - ∆log 0, where ∆log f and ∆log 0 are the upper and lower limits of Δlog) in the assay conditions, the SC concentration (Δlog = 0), the dose required for half-variation in Δlogmax (K 1/2), and the cooperativity of the antimicrobial effect (N H).
as §2
As antibacterial efficacy may decline with the bacterium dose in the inoculum ([Belley et al., 2009]; [Udekwu et al., 2009]; [Luca et al., 2013]), activity assays were performed using the bacterial concentrations required for the fluorescence experiments in Section 2.3 (10^7–10^8 CFU/mL). At such bacterial densities, MICs were determined as the DICAM concentration at which bacteria neither grow nor are killed under assay conditions (the stationary concentration (SC)), as indicated in Section 2.2. […]

Data set [4] relates to Staphylococcus aureus T. The data set can be described thus: Growth inhibition screening of planktonic cultures (OD550/600). Type of data set: cell-based. On the set-up: key: (+++) full inhibition; (++) partial inhibition; (+) growth retardation; -: (−) no effect. Conditions: S. aureus T, 50 and 100 μM compound added at T1, OD550/600 followed 10 h, 37°C. The protocol: as §1, §2

Data set [5] relates to Streptococcus pyogenes T. Described as above. Format: cell-based. The arrangement: key: (+++) full inhibition; (++) partial inhibition; (+) growth retardation; -: (−) no effect. Conditions: S. pyogenes T, 50 and 100 μM compound added at T1, OD550/600 followed 10 h, 37°C. The protocol:
as §1, §2

Data set [6] has as its system Escherichia coli DH10B. The data set is described as above. Type of data set: cell-based. The arrangement: key: (+++) full inhibition; (++) partial inhibition; (+) growth retardation; -: (−) no effect. Conditions: E. coli DH10B, 50 and 100 μM compound added at T1, OD550/600 followed 10 h, 37°C. The protocol:
as §1, §2

The test system of data set [7] is Pseudomonas aeruginosa PAO1. The data set is described as above. Format: cell-based. The arrangement: key: (+++) full inhibition; (++) partial inhibition; (+) growth retardation; -: (−) no effect. Conditions: P. aeruginosa PAO1, 50 and 100 μM compound added at T1, OD550/600 followed 10 h, 37°C. The protocol:
as §1, §2

For data set [8], the system named is Pseudomonas aeruginosa PAO1. As to the kind of experiment: Resting-cell viability (CFU) with 0.5 mM EDTA. Conditions: P. aeruginosa PAO1, 100 µM compound, 3 h incubation. Type of data set: cell-based. The protocol:
(§3) Addition of tested compounds to the culture medium had little or no effect on bacterial growth, even at a concentration of 100 μM (Table 1). Since inactivity could arise from the inability of DICAMs to cross the outer membrane, we next tested their effect on bacterial suspensions in the absence or the presence of 0.5 mM EDTA, an outer membrane permeating agent. A decrease of approximately 90% in bacterial viability was observed after 3 h treatment with DICAM 2 and DICAM 4, compared to controls in EDTA-containing buffer (Supplementary Figure S5). No variations were found with the other compounds tested (Table 1), showing that only DICAMs containing Ala/Asn- Pro -Glu tripeptides were able to access the cell membrane and kill these pathogens when the outer membrane permeability was enhanced.
(§4) For activity assays on resting cells, bacteria grown to exponential phase (OD600 ≈ 0.3) were centrifuged and washed with 20 mM Tris-HCl (pH 7.5), adjusting the final OD600 to ≈0.6 (≈10^8 CFU/mL) with the same buffer. If required, EDTA (0.5 mM final concentration) was next added and the bacterial suspension was dispensed (225 µL per well) in 96-well plates, and then treated with 100 µM DICAM (25 µL). Samples were incubated at 37°C for 3 h and turbidity measurements were taken at selected intervals, also measuring the decay in cell viability at the end of incubation. Controls with buffer (with and without 1% DMSO), 100 µM DICAM, or 0.5 mM EDTA were run in parallel.

Data set [9] concerns Escherichia coli DH10B. The data set can be described thus: Resting-cell viability (CFU) with 0.5 mM EDTA. Format: cell-based. Conditions: E. coli DH10B, 100 µM compound, 3 h incubation. The method, then: as §3, §4

On to “Ala- Pro -Glu-NH-C12H25 · HCl [DICAM 11]”, for which the “Growth halt or lysis (50/100 μM), Spn” value in [1] is “-”. The same substance registered a Retention time in [2] of 15.29 min.

Turning to “Ala- Pro -Glu-NH-C16H33 · HCl [DICAM 12]”, the “Reduction of the number of viable cells at saturating doses” value in data set [3] (S. pneumoniae D39, within 60 min) is on record as at least 4.6 log-units. Further, in data set [3] (after 1-h incubation at 3 × SC values), the “Reduction of the number of viable cells at 3 × SC, S. pneumoniae” value is listed as 99.2%–99.8. Besides, the “Growth halt or lysis (50/100 μM), Spn” value in data set [1] is reported as “+++”. Besides, in data set [2], the Retention time came to 17.57 min.

For the substance “Ala- Pro -Trp-NH-C18H37 · HCl [DICAM 16]”, the “Growth halt or lysis (50/100 μM), Sa T” value in data set [4] was “-”. For the same substance, in data set [5], the “Growth halt or lysis (50/100 μM), Spy T” value is “-”. For the same substance, in data set [6], the “Growth halt or lysis (50/100 μM), Ec” value was “-”. Besides, the “Growth halt or lysis (50/100 μM), Pa” value in [7] is “-”. Further, the “Growth halt or lysis (50/100 μM), Spn” value in data set [1] is recorded as “-”. In data set [2], this substance yielded a Retention time of 21.04 min. Moreover, the “CFU's decay in the presence of 0.5 mM EDTA, Pa (data in parenthesis)” value (from here on “CFU's decay … Pa (data in parenthesis)”) in data set [8] is reported as “(−) ((−) ≤ 0.3 log-units)”. Moreover, the “CFU's decay in the presence of 0.5 mM EDTA, Ec (data in parenthesis)” value (shortened to “CFU's decay … Ec (data in parenthesis)”) in data set [9] is listed as “(−) ((−) ≤ 0.3 log-units)”.

For “Asn- Ala -Glu-NH-C18H37 · HCl [DICAM 17]”, the “Growth halt or lysis (50/100 μM), Sa T” value in data set [4] was “-”. Also, the “Growth halt or lysis (50/100 μM), Spy T” value in data set [5] is “-”. For the same substance, in data set [6], the “Growth halt or lysis (50/100 μM), Ec” value is “-”. For the same substance, in data set [7], the “Growth halt or lysis (50/100 μM), Pa” value is reported as “-”. Also, the “Growth halt or lysis (50/100 μM), Spn” value in data set [1] was “-”. Besides, the Retention time in data set [2] came to 18.63 min. Also, in data set [8], the “CFU's decay … Pa (data in parenthesis)” value is recorded as “(−) ((−) ≤ 0.3 log-units)”. Besides, the “CFU's decay … Ec (data in parenthesis)” value in [9] is on record as “(−) ((−) ≤ 0.3 log-units)”.

Take Asn- Pro -Glu-OMe · HCl [DICAM 5]: the “Growth halt or lysis (50/100 μM), Spn” value in [1] is given as “-”. The substance further displayed a Retention time in data set [2] of 5.15 min.

As for Cbz-Ala- Pro -Trp-NH-C18H37 [DICAM 15], the “Growth halt or lysis (50/100 μM), Ec” value in data set [6] was “-”. Moreover, the “Growth halt or lysis (50/100 μM), Pa” value in data set [7] is “-”. In addition, the “Growth halt or lysis (50/100 μM), Spn” value in data set [1] is “-”. Further, the Retention time in data set [2] stood at 23.18 min. In addition, in [8], the “CFU's decay … Pa (data in parenthesis)” value was “(−) ((−) ≤ 0.3 log-units)”. Further, the “CFU's decay … Ec (data in parenthesis)” value in data set [9] is “(−) ((−) ≤ 0.3 log-units)”.

For “Cbz-Asn- Pro -Glu(O^tBu)-NH-C18H37 [DICAM 8]”, the “Growth halt or lysis (50/100 μM), Spn” value in data set [1] is recorded as “-”.

Consider Cbz-Asn- Pro -Glu-NH-C12H25 [DICAM 9], for which the “Growth halt or lysis (50/100 μM), Spn” value in data set [1] is reported as “-”. The same substance displayed a Retention time in [2] of 15.80 min.

Regarding Pro -Glu-NH-C18H37 · HCl [DICAM 18], the “Growth halt or lysis (50/100 μM), Ec” value in [6] is “-”. In addition, the “Growth halt or lysis (50/100 μM), Pa” value in data set [7] was “-”. In addition, the “Growth halt or lysis (50/100 μM), Spn” value in data set [1] is on record as “-”. The substance further returned a Retention time in [2] of 19.54 min.
